Source: ChEMBL document CHEMBL1201862, “PubChem BioAssay data set” (2004)
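Briefly, cells in 96-well plates were exposed to five compound concentrations for 48 h, and endpoints were estimated by linear interpolation. GI50: concentration for 50% inhibition of growth.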 Activity calls are given as the source filed them. Cut-off read from the data, not from the text of the source: active = GI50 up to about 1.1 µM and inactive = higher.

How the values were obtained:
Assay in all cases: NCI-60 cell line screen, 48 h
SK-MEL-28 = test system: SK-MEL-28
HCT-116 = test system: HCT-116
K562 = test system: K562
A498 = test system: A498
Malme-3M = test system: Malme-3M
NCI-H23 = test system: NCI-H23
KM-20L2 = test system: KM-20L2
U-251 = test system: U-251
CCRF-CEM = test system: CCRF-CEM
HCC 2998 = test system: HCC 2998
SNB-19 = test system: SNB-19
SK-MEL-5 = test system: SK-MEL-5
UACC-62 = test system: UACC-62
NCI-H226 = test system: NCI-H226
OVCAR-4 = test system: OVCAR-4
OVCAR-3 = test system: OVCAR-3
RPMI-8226 = test system: RPMI-8226
NCI-H522 = test system: NCI-H522
NCI/ADR-RES = test system: NCI/ADR-RES
MDA-MB-435 = test system: MDA-MB-435

| Compound | GI50 (SK-MEL-28) | GI50 (HCT-116) | GI50 (K562) | GI50 (A498) | GI50 (Malme-3M) | GI50 (NCI-H23) | GI50 (KM-20L2) | GI50 (U-251) | GI50 (CCRF-CEM) | GI50 (HCC 2998) | GI50 (SNB-19) | GI50 (SK-MEL-5) | GI50 (UACC-62) | GI50 (NCI-H226) | GI50 (OVCAR-4) | GI50 (OVCAR-3) | GI50 (RPMI-8226) | GI50 (NCI-H522) | GI50 (NCI/ADR-RES) | GI50 (MDA-MB-435) |
| --- | --- | --- | --- | --- | --- | --- | --- | --- | --- | --- | --- | --- | --- | --- | --- | --- | --- | --- | --- | --- |
| CCOC(=O)Nc1ccc(S(=O)(=O)I)cc1.CCOC(=O)Nc1ccc(S(=O)(=O)I)cc1.CNC(=O)N=O.NC(=O)OCCCl | 67 µM (inactive) | > 100 µM (inactive) | 40 µM (inactive) | > 100 µM (inactive) | 49.8 µM (inactive) | > 100 µM (inactive) | > 100 µM (inactive) | > 100 µM (inactive) | 74.8 µM (inactive) | > 100 µM (inactive) | > 100 µM (inactive) | > 100 µM (inactive) | 73.6 µM (inactive) | – | – | – | – | – | – | – |
| CC(=O)NN1C(=O)C(Cc2ccccc2)c2ccccc21 (centres undefined) | > 100 µM (inactive) | > 100 µM (inactive) | > 100 µM (inactive) | > 100 µM (inactive) | > 100 µM (inactive) | > 100 µM (inactive) | > 100 µM (inactive) | > 100 µM (inactive) | > 100 µM (inactive) | > 100 µM (inactive) | > 100 µM (inactive) | > 100 µM (inactive) | > 100 µM (inactive) | > 100 µM (inactive) | > 100 µM (inactive) | > 100 µM (inactive) | > 100 µM (inactive) | – | – | – |
| COC(=O)C1=C(SC)SC2(C(=O)OC)C3C=C(C)C4C(N13)C42C(=O)OC (centres undefined) | > 100 µM (inactive) | > 100 µM (inactive) | > 100 µM (inactive) | – | > 100 µM (inactive) | > 100 µM (inactive) | > 100 µM (inactive) | > 100 µM (inactive) | > 100 µM (inactive) | > 100 µM (inactive) | > 100 µM (inactive) | 83.6 µM (inactive) | > 100 µM (inactive) | > 100 µM (inactive) | – | > 100 µM (inactive) | > 100 µM (inactive) | > 100 µM (inactive) | – | – |
| ClC1=C(Cl)C(Cl)(Cl)c2c3c(c4c(c21)C(Cl)(Cl)C(Cl)=C4Cl)C(Cl)(Cl)C(Cl)=C3Cl | > 100 µM (inactive) | > 100 µM (inactive) | > 100 µM (inactive) | – | > 100 µM (inactive) | > 100 µM (inactive) | > 100 µM (inactive) | > 100 µM (inactive) | > 100 µM (inactive) | > 100 µM (inactive) | > 100 µM (inactive) | > 100 µM (inactive) | – | > 100 µM (inactive) | – | > 100 µM (inactive) | > 100 µM (inactive) | 33.1 µM (inactive) | – | – |
| Cc1cc(NC[C@H](O)[C@H](O)[C@H](O)CO)c(Sc2cc(=O)[nH]c(=O)[nH]2)cc1C | > 62.5 µM (inactive) | > 62.5 µM (inactive) | > 62.5 µM (inactive) | > 62.5 µM (inactive) | > 62.5 µM (inactive) | > 62.5 µM (inactive) | – | > 62.5 µM (inactive) | > 62.5 µM (inactive) | > 62.5 µM (inactive) | > 62.5 µM (inactive) | > 62.5 µM (inactive) | > 62.5 µM (inactive) | > 62.5 µM (inactive) | > 62.5 µM (inactive) | > 62.5 µM (inactive) | > 62.5 µM (inactive) | > 62.5 µM (inactive) | > 62.5 µM (inactive) | > 62.5 µM (inactive) |
| OCCCc1cnco1 | > 100 µM (inactive) | > 100 µM (inactive) | > 100 µM (inactive) | > 100 µM (inactive) | > 100 µM (inactive) | > 100 µM (inactive) | > 100 µM (inactive) | > 100 µM (inactive) | > 100 µM (inactive) | > 100 µM (inactive) | > 100 µM (inactive) | > 100 µM (inactive) | > 100 µM (inactive) | > 100 µM (inactive) | > 100 µM (inactive) | > 100 µM (inactive) | > 100 µM (inactive) | – | – | – |
| CC(C)(C)OC(=O)N(O)[C@@H]1C=C[C@H](n2cnc3c(N)ncnc32)C1 | > 100 µM (inactive) | > 100 µM (inactive) | > 100 µM (inactive) | > 100 µM (inactive) | > 100 µM (inactive) | > 100 µM (inactive) | – | > 100 µM (inactive) | > 100 µM (inactive) | > 100 µM (inactive) | > 100 µM (inactive) | 70.5 µM (inactive) | > 100 µM (inactive) | 26.5 µM (inactive) | > 100 µM (inactive) | > 100 µM (inactive) | > 100 µM (inactive) | > 100 µM (inactive) | > 100 µM (inactive) | > 100 µM (inactive) |
| O=C(/C=C/c1ccccc1F)C(c1ccccc1)c1ccccc1 | 2.72 µM (inactive) | 2.24 µM (inactive) | 3.7 µM (inactive) | – | 10.8 µM (inactive) | 4.22 µM (inactive) | 3.8 µM (inactive) | 3.74 µM (inactive) | 2.31 µM (inactive) | – | 2.14 µM (inactive) | – | 2.08 µM (inactive) | 11.4 µM (inactive) | – | 3.97 µM (inactive) | 3.53 µM (inactive) | 2.62 µM (inactive) | – | – |
| COc1cc(/C=N/N=C2NCCCN2)ccc1O | > 100 µM (inactive) | > 100 µM (inactive) | > 100 µM (inactive) | > 100 µM (inactive) | 95.7 µM (inactive) | > 100 µM (inactive) | – | > 100 µM (inactive) | > 100 µM (inactive) | > 100 µM (inactive) | > 100 µM (inactive) | > 100 µM (inactive) | > 100 µM (inactive) | > 100 µM (inactive) | > 100 µM (inactive) | > 100 µM (inactive) | > 100 µM (inactive) | > 100 µM (inactive) | > 100 µM (inactive) | > 100 µM (inactive) |
| O=C(CCCN1CCc2[nH]c3cc(F)ccc3c2C1)c1ccc(F)cc1 | 20.3 µM (inactive) | 11.8 µM (inactive) | 5.71 µM (inactive) | 11.8 µM (inactive) | 12.6 µM (inactive) | 14.1 µM (inactive) | – | 16.3 µM (inactive) | 12 µM (inactive) | 3.33 µM (inactive) | > 100 µM (inactive) | 17.1 µM (inactive) | 12.7 µM (inactive) | 18.7 µM (inactive) | 13.8 µM (inactive) | 14.2 µM (inactive) | 10 µM (inactive) | 20.7 µM (inactive) | 14.2 µM (inactive) | 12.9 µM (inactive) |
| CCOC(=O)c1ccc(C(=O)/C(C#N)=C2\CCCN2C)[nH]1 | > 100 µM (inactive) | > 100 µM (inactive) | > 100 µM (inactive) | > 100 µM (inactive) | > 100 µM (inactive) | > 100 µM (inactive) | – | > 100 µM (inactive) | > 100 µM (inactive) | > 100 µM (inactive) | > 100 µM (inactive) | > 100 µM (inactive) | > 100 µM (inactive) | > 100 µM (inactive) | > 100 µM (inactive) | > 100 µM (inactive) | > 100 µM (inactive) | > 100 µM (inactive) | > 100 µM (inactive) | > 100 µM (inactive) |
| O=C(O)c1cc2ccccc2c(Cc2c(O)c(C(=O)O)cc3ccccc23)c1O [PAMOIC ACID] | > 100 µM (inactive) | > 100 µM (inactive) | > 100 µM (inactive) | > 100 µM (inactive) | > 100 µM (inactive) | > 100 µM (inactive) | – | > 100 µM (inactive) | > 100 µM (inactive) | > 100 µM (inactive) | > 100 µM (inactive) | > 100 µM (inactive) | > 100 µM (inactive) | > 100 µM (inactive) | > 100 µM (inactive) | > 100 µM (inactive) | > 100 µM (inactive) | > 100 µM (inactive) | > 100 µM (inactive) | > 100 µM (inactive) |
| Cc1ccc(Sc2cc([N+](=O)[O-])cc(Sc3ccc(C)cc3)c2Sc2ccc(C)cc2)cc1 | – | > 100 µM (inactive) | 48.8 µM (inactive) | > 100 µM (inactive) | > 100 µM (inactive) | – | > 100 µM (inactive) | 46.5 µM (inactive) | 27.2 µM (inactive) | > 100 µM (inactive) | 66.8 µM (inactive) | > 100 µM (inactive) | > 100 µM (inactive) | > 100 µM (inactive) | – | > 100 µM (inactive) | > 100 µM (inactive) | – | – | – |
| COc1cc(-c2c(C#N)c(N)c(C#N)c3c2COc2ccccc2-3)cc(OC)c1OC | > 100 µM (inactive) | > 49.4 µM (inactive) | > 60.4 µM (inactive) | 39.3 µM (inactive) | 20.3 µM (inactive) | 31.6 µM (inactive) | – | 12.4 µM (inactive) | > 100 µM (inactive) | 16.6 µM (inactive) | 13.2 µM (inactive) | > 86.3 µM (inactive) | 30.2 µM (inactive) | 6.92 µM (inactive) | > 22.8 µM (inactive) | > 42.8 µM (inactive) | > 22.9 µM (inactive) | 84.1 µM (inactive) | 42.5 µM (inactive) | > 100 µM (inactive) |
| COc1cc2c(cc1OC)C(C#N)(Cc1ccccc1)N(C(=O)c1ccccc1)C=C2 (centres undefined) | > 100 µM (inactive) | 50.9 µM (inactive) | 44.3 µM (inactive) | – | > 100 µM (inactive) | 75.7 µM (inactive) | 67.3 µM (inactive) | > 100 µM (inactive) | 35.6 µM (inactive) | > 100 µM (inactive) | > 100 µM (inactive) | 26 µM (inactive) | 31.3 µM (inactive) | 63 µM (inactive) | – | > 100 µM (inactive) | 35.5 µM (inactive) | 33.9 µM (inactive) | – | – |
| Cn1cc(-c2cnc(-c3cn(C)c4ccccc34)cn2)c2ccccc21 | 6.37 µM (inactive) | 3.4 µM (inactive) | 3.8 µM (inactive) | 4.69 µM (inactive) | 5.11 µM (inactive) | 4.25 µM (inactive) | – | 4.06 µM (inactive) | 0.448 µM (active) | 5.61 µM (inactive) | 4.71 µM (inactive) | 0.288 µM (active) | 2.86 µM (inactive) | 6.31 µM (inactive) | 11.6 µM (inactive) | 3.04 µM (inactive) | 4.98 µM (inactive) | 1.51 µM (inactive) | 2.96 µM (inactive) | 0.811 µM (active) |
